From US10538554B2, “Peptides and uses therefor as antiviral agents” (priority 2015, dated 2020)
Bridge positions count the residues as written; N and C are the ends. Square brackets hold non-standard residues; d marks the D form. Peptide text beside a SMILES is read from it.

Columns and labels:
H9N2 A/Iran/16/2000 = conditions: 48 h, 500 μM
[1] = system: H1N1 A1/Malaysia/302/1954; conditions: A1/Malaysia/302/1954, 48 h, 500 μM
H3N8 A/Miami/2/63 = conditions: A/Miami/2/63, 48 h, 500 μM
H1N1 A/PR/8/1934 = conditions: A/PR/8/1934, 48 h, 1 μM

SMILES | % inhibition H9N2 (H9N2 A/Iran/16/2000) | % inhibition H1N1 [1] | % inhibition H3N8 (H3N8 A/Miami/2/63) | % Inhibition (H1N1 A/PR/8/1934)
CC[C@@H](C)[C@H]1NC(=O)[C@@H](Cc2ccccc2)NC(=O)[C@@H](CCCNC(=N)N)NC(=O)[C@@H](CO)NC(=O)[C@@H](CCCCN)NC(=O)[C@@H]([C@H](C)O)NC(=O)[C@H](NC(=O)[C@@H](CCCCN)NC(=O)[C@@H](CCCCN)NC(=O)[C@@H](CCCNC(=N)N)NC(=O)[C@H](N)CCCNC(=N)N)CSSC[C@H](C(=O)O)NC(=O)[C@@H](CC(N)=O)NC1=O [PSP II A9, H-rrkkctksrfinc-OH] (H-[dR][dR][dK][dK][dC][dT][dK][dS][dR][dF][dI][dN][dC]-OH; disulfide 5-13) | 50% | 81% | 77.8% | –
CC[C@@H](C)[C@H]1NC(=O)[C@@H](Cc2ccccc2)NC(=O)[C@@H](CCCNC(=N)N)NC(=O)[C@@H](CO)NC(=O)[C@@H](CC(C)C)NC(=O)[C@@H]([C@H](C)O)NC(=O)[C@H](NC(=O)[C@@H](CCCCN)NC(=O)[C@@H](CCCCN)NC(=O)[C@@H](CCCNC(=N)N)NC(=O)[C@H](N)CCCNC(=N)N)CSSC[C@H](C(=O)O)NC(=O)[C@@H](CC(N)=O)NC1=O [PSP II A10, H-rrkkctisrfinc-OH] (H-[dR][dR][dK][dK][dC][dT][dL][dS][dR][dF][dI][dN][dC]-OH; disulfide 5-13) | 40% | 63.5% | 88.9% | –
CC[C@@H](C)[C@H]1NC(=O)[C@@H](Cc2ccccc2)NC(=O)[C@@H](CCCNC(=N)N)NC(=O)[C@@H](CO)NC(=O)[C@@H](CCSC)NC(=O)[C@@H]([C@H](C)O)NC(=O)[C@H](NC(=O)[C@@H](CCCCN)NC(=O)[C@@H](CCCCN)NC(=O)[C@@H](CCCNC(=N)N)NC(=O)[C@H](N)CCCNC(=N)N)CSSC[C@H](C(=O)O)NC(=O)[C@@H](CC(N)=O)NC1=O [PSP II A11, H-rrkkctmsrfinc-OH] (H-[dR][dR][dK][dK][dC][dT][dM][dS][dR][dF][dI][dN][dC]-OH; disulfide 5-13) | 40% | 65.4% | 76.5% | –
CC[C@@H](C)[C@H]1NC(=O)[C@@H](Cc2ccccc2)NC(=O)[C@@H](CCCNC(=N)N)NC(=O)[C@@H](CO)NC(=O)[C@H]2CCCN2C(=O)[C@@H]([C@H](C)O)NC(=O)[C@H](NC(=O)[C@@H](CCCCN)NC(=O)[C@@H](CCCCN)NC(=O)[C@@H](CCCNC(=N)N)NC(=O)[C@H](N)CCCNC(=N)N)CSSC[C@H](C(=O)O)NC(=O)[C@@H](CC(N)=O)NC1=O [PSP II A13, H-rrkkctpsrfinc-OH] (H-[dR][dR][dK][dK][dC][dT][dP][dS][dR][dF][dI][dN][dC]-OH; disulfide 5-13) | 70% | 86.5% | 97% | –
CC[C@@H](C)[C@H]1NC(=O)[C@@H](Cc2ccccc2)NC(=O)[C@@H](CCCNC(=N)N)NC(=O)[C@@H](CO)NC(=O)[C@@H](CCC(N)=O)NC(=O)[C@@H]([C@H](C)O)NC(=O)[C@H](NC(=O)[C@@H](CCCCN)NC(=O)[C@@H](CCCCN)NC(=O)[C@@H](CCCNC(=N)N)NC(=O)[C@H](N)CCCNC(=N)N)CSSC[C@H](C(=O)O)NC(=O)[C@@H](CC(N)=O)NC1=O [PSP II A14, H-rrkkctqsrfinc-OH] (H-[dR][dR][dK][dK][dC][dT][dQ][dS][dR][dF][dI][dN][dC]-OH; disulfide 5-13) | 80% | 73% | 85% | –
CC[C@@H](C)[C@H]1NC(=O)[C@@H](Cc2ccccc2)NC(=O)[C@@H](CCCNC(=N)N)NC(=O)[C@@H](CO)NC(=O)[C@@H](CCCNC(=N)N)NC(=O)[C@@H]([C@H](C)O)NC(=O)[C@H](NC(=O)[C@@H](CCCCN)NC(=O)[C@@H](CCCCN)NC(=O)[C@@H](CCCNC(=N)N)NC(=O)[C@H](N)CCCNC(=N)N)CSSC[C@H](C(=O)O)NC(=O)[C@@H](CC(N)=O)NC1=O [PSP II A15, H-rrkkctrsrfinc-OH] (H-[dR][dR][dK][dK][dC][dT][dR][dS][dR][dF][dI][dN][dC]-OH; disulfide 5-13) | 90% | 57.7% | 79.4% | –
CC[C@@H](C)[C@H]1NC(=O)[C@@H](Cc2ccccc2)NC(=O)[C@@H](CCCNC(=N)N)NC(=O)[C@@H](CO)NC(=O)[C@@H](CO)NC(=O)[C@@H]([C@H](C)O)NC(=O)[C@H](NC(=O)[C@@H](CCCCN)NC(=O)[C@@H](CCCCN)NC(=O)[C@@H](CCCNC(=N)N)NC(=O)[C@H](N)CCCNC(=N)N)CSSC[C@H](C(=O)O)NC(=O)[C@@H](CC(N)=O)NC1=O [PSP II A16, H-rrkkctssrfinc-OH] (H-[dR][dR][dK][dK][dC][dT][dS][dS][dR][dF][dI][dN][dC]-OH; disulfide 5-13) | 90% | 61.5% | 61.8% | –
CC[C@@H](C)[C@H]1NC(=O)[C@@H](Cc2ccccc2)NC(=O)[C@@H](CCCNC(=N)N)NC(=O)[C@@H](CO)NC(=O)[C@@H]([C@H](C)O)NC(=O)[C@@H]([C@H](C)O)NC(=O)[C@H](NC(=O)[C@@H](CCCCN)NC(=O)[C@@H](CCCCN)NC(=O)[C@@H](CCCNC(=N)N)NC(=O)[C@H](N)CCCNC(=N)N)CSSC[C@H](C(=O)O)NC(=O)[C@@H](CC(N)=O)NC1=O [PSP II A17, H-rrkkcttsrfinc-OH] (H-[dR][dR][dK][dK][dC][dT][dT][dS][dR][dF][dI][dN][dC]-OH; disulfide 5-13) | 80% | 67.3% | 70.6% | –
CC[C@@H](C)[C@H]1NC(=O)[C@@H](Cc2ccccc2)NC(=O)[C@@H](CCCNC(=N)N)NC(=O)[C@@H](CO)NC(=O)[C@@H](C(C)C)NC(=O)[C@@H]([C@H](C)O)NC(=O)[C@H](NC(=O)[C@@H](CCCCN)NC(=O)[C@@H](CCCCN)NC(=O)[C@@H](CCCNC(=N)N)NC(=O)[C@H](N)CCCNC(=N)N)CSSC[C@H](C(=O)O)NC(=O)[C@@H](CC(N)=O)NC1=O [PSP II A18, H-rrkkctvsrfinc-OH] (H-[dR][dR][dK][dK][dC][dT][dV][dS][dR][dF][dI][dN][dC]-OH; disulfide 5-13) | 70% | 42.3% | 47% | –
CC[C@@H](C)[C@H]1NC(=O)[C@@H](Cc2ccccc2)NC(=O)[C@@H](CCCNC(=N)N)NC(=O)[C@@H](CO)NC(=O)[C@@H](Cc2c[nH]c3ccccc23)NC(=O)[C@@H]([C@H](C)O)NC(=O)[C@H](NC(=O)[C@@H](CCCCN)NC(=O)[C@@H](CCCCN)NC(=O)[C@@H](CCCNC(=N)N)NC(=O)[C@H](N)CCCNC(=N)N)CSSC[C@H](C(=O)O)NC(=O)[C@@H](CC(N)=O)NC1=O [PSP II A19, H-rrkkctwsrfinc-OH] (H-[dR][dR][dK][dK][dC][dT][dW][dS][dR][dF][dI][dN][dC]-OH; disulfide 5-13) | 100% | 88.4% | 82.4% | –
CC[C@@H](C)[C@H]1NC(=O)[C@@H](Cc2ccccc2)NC(=O)[C@@H]([C@H](C)O)NC(=O)[C@@H](Cc2ccccc2)NC(=O)[C@@H](Cc2c[nH]c3ccccc23)NC(=O)[C@@H](C)NC(=O)[C@H](NC(=O)[C@H](CCCCN)NC(=O)[C@H](CCCCN)NC(=O)[C@H](CCCNC(=N)N)NC(=O)[C@@H](N)CCCNC(=N)N)CSSC[C@H](C(=O)O)NC(=O)[C@@H](CC(N)=O)NC1=O [PSP V A1, H-RRKKcawftfinc-OH] (H-RRKK[dC][dA][dW][dF][dT][dF][dI][dN][dC]-OH; disulfide 5-13) | – | – | – | <20%
CC[C@@H](C)[C@H]1NC(=O)[C@@H](Cc2ccccc2)NC(=O)[C@@H]([C@H](C)O)NC(=O)[C@@H](Cc2ccccc2)NC(=O)[C@@H](Cc2c[nH]c3ccccc23)NC(=O)[C@@H](CS)NC(=O)[C@H](NC(=O)[C@H](CCCCN)NC(=O)[C@H](CCCCN)NC(=O)[C@H](CCCNC(=N)N)NC(=O)[C@@H](N)CCCNC(=N)N)CSSC[C@H](C(=O)O)NC(=O)[C@@H](CC(N)=O)NC1=O [PSP V A2, H-RRKKccwftfinc-OH] (H-RRKK[dC][dC][dW][dF][dT][dF][dI][dN][dC]-OH; disulfide 5-13) | – | – | – | <20%
CC[C@@H](C)[C@H]1NC(=O)[C@@H](Cc2ccccc2)NC(=O)[C@@H]([C@H](C)O)NC(=O)[C@@H](Cc2ccccc2)NC(=O)[C@@H](Cc2c[nH]c3ccccc23)NC(=O)[C@@H](CC(=O)O)NC(=O)[C@H](NC(=O)[C@H](CCCCN)NC(=O)[C@H](CCCCN)NC(=O)[C@H](CCCNC(=N)N)NC(=O)[C@@H](N)CCCNC(=N)N)CSSC[C@H](C(=O)O)NC(=O)[C@@H](CC(N)=O)NC1=O [PSP V A3, H-RRKKcdwftfinc-OH] (H-RRKK[dC][dD][dW][dF][dT][dF][dI][dN][dC]-OH; disulfide 5-13) | – | – | – | <20%
CC[C@@H](C)[C@H]1NC(=O)[C@@H](Cc2ccccc2)NC(=O)[C@@H]([C@H](C)O)NC(=O)[C@@H](Cc2ccccc2)NC(=O)[C@@H](Cc2c[nH]c3ccccc23)NC(=O)[C@@H](CCC(=O)O)NC(=O)[C@H](NC(=O)[C@H](CCCCN)NC(=O)[C@H](CCCCN)NC(=O)[C@H](CCCNC(=N)N)NC(=O)[C@@H](N)CCCNC(=N)N)CSSC[C@H](C(=O)O)NC(=O)[C@@H](CC(N)=O)NC1=O [PSP V A4, H-RRKKcewftfinc-OH] (H-RRKK[dC][dE][dW][dF][dT][dF][dI][dN][dC]-OH; disulfide 5-13) | – | – | – | 27%
CC[C@@H](C)[C@H]1NC(=O)[C@@H](Cc2ccccc2)NC(=O)[C@@H]([C@H](C)O)NC(=O)[C@@H](Cc2ccccc2)NC(=O)[C@@H](Cc2c[nH]c3ccccc23)NC(=O)[C@@H](Cc2ccccc2)NC(=O)[C@H](NC(=O)[C@H](CCCCN)NC(=O)[C@H](CCCCN)NC(=O)[C@H](CCCNC(=N)N)NC(=O)[C@@H](N)CCCNC(=N)N)CSSC[C@H](C(=O)O)NC(=O)[C@@H](CC(N)=O)NC1=O [PSP V A5, H-RRKKcfWftfinc-OH] (H-RRKK[dC][dF][dW][dF][dT][dF][dI][dN][dC]-OH; disulfide 5-13) | – | – | – | 57%
